From patent publication US9944603B2, “Compounds and methods for the treatment of cystic fibrosis” (Flatley Discovery Lab, LLC, priority 2013, dated 2018)
pEC50: −log10 of the molar value.

Target: T1, human F508del CFTR (Homo sapiens, UniProt P13569, DEL508-508)
T1 construct: expressed in transfected cells
Experiment: CFTR-YFP Assay, CFTR Corrector Protocol (YFP flux assay)
Type: cell-based
Conditions: for Emax: normalized to the positive control, read-out: EMAX (% Efficacy, EMAX normalized to the positive control)

T1 sequence (P13569 with tags, fused parts or gaps DEL508-508): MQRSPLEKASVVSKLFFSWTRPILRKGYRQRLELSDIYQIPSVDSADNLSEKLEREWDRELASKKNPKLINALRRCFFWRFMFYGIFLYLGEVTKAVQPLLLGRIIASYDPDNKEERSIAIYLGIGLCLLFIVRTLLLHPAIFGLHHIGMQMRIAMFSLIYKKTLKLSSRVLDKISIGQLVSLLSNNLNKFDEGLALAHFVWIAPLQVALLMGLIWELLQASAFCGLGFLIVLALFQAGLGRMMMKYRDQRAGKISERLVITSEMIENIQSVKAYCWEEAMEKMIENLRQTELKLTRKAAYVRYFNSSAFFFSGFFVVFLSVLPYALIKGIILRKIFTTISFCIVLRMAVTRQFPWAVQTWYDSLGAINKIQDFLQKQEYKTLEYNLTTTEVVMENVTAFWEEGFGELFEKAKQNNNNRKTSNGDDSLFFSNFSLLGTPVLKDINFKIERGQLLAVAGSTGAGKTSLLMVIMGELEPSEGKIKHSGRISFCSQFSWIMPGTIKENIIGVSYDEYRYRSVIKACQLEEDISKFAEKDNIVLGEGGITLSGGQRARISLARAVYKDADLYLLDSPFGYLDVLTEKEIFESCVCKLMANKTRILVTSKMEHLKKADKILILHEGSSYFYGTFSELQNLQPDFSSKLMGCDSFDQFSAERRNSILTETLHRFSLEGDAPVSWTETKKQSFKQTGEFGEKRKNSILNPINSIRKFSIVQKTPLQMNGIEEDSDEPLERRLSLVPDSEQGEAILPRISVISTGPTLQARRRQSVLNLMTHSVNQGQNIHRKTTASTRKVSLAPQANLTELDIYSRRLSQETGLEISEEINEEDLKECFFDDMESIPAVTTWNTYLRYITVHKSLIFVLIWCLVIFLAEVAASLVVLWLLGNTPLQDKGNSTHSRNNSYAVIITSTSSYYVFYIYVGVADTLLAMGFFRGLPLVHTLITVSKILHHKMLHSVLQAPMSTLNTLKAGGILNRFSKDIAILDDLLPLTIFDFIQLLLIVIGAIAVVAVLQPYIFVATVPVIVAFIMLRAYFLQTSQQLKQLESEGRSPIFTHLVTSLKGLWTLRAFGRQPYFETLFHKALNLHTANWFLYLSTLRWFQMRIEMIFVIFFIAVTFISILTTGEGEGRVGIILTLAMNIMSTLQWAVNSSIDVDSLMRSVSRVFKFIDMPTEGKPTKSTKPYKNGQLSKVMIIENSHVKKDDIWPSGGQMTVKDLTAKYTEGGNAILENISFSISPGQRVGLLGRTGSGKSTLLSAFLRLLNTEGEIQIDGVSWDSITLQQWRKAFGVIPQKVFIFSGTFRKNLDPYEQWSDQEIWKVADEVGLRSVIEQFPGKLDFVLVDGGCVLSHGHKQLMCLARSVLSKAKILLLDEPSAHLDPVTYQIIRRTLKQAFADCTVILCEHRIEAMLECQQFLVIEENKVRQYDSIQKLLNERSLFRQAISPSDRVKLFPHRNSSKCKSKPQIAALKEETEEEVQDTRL

| Compound | pEC50 | Emax [%] |
| --- | --- | --- |
| CCc1ccc(S(=O)(=O)N2CCC(N(c3ccccn3)S(=O)(=O)c3ccccc3Cl)CC2)cc1 [Example 182] | > 5.00 | 10 to 30 |
| CCc1ccc(S(=O)(=O)N2CCC(N(C(=O)c3ccccc3Cl)c3ccc(I)cc3)CC2)cc1 [Example 216] | > 5.00 | 10 to 30 |
| O=S(=O)(c1ccc(OC(F)F)cc1)N1CCC(n2c(-c3ccncc3F)nc3nccnc32)CC1 [Example 129] | > 5.00 | 10 to 30 |
| CCc1ccc(S(=O)(=O)N2CCC(N(c3ccc(OC)cn3)S(=O)(=O)c3ccccc3Cl)CC2)cc1 [Example 218] | > 5.00 | 10 to 30 |
| Cc1ccc(N(C2CCN(S(=O)(=O)c3ccc4nc(C)oc4c3)CC2)S(=O)(=O)c2ccccc2Cl)nc1 [Example 223] | 4.70 to 5.00 | 10 to 30 |
| COc1ccc2c(c1)nc(-c1ccncc1Cl)n2C1CCN(S(=O)(=O)c2ccc3c(c2)OC(F)(F)O3)CC1 [Example 154] | > 5.00 | 30 to 80 |
| CCc1ccc(S(=O)(=O)N2CCC(N(c3ccccn3)S(=O)(=O)c3cccc(C)c3)CC2)cc1 [Example 226] | > 5.00 | 10 to 30 |
| COc1ccc2nc(-c3ccncc3Cl)n(C3CCN(S(=O)(=O)c4ccc(OC)c(Cl)c4)CC3)c2n1 [Example 58] | > 5.00 | 10 to 30 |
| Cc1ccnc2c1nc(-c1ccncc1F)n2C1CCN(S(=O)(=O)c2ccc3c(c2)OC(F)(F)O3)CC1 [Example 165] | > 5.00 | 30 to 80 |
| CCc1ccc(S(=O)(=O)N2CCC(N(c3ccc(C(F)(F)F)cn3)S(=O)(=O)c3ccccc3Cl)CC2)cc1 [Example 243] | 4.70 to 5.00 | 10 to 30 |
| CCc1ccc(S(=O)(=O)N2CCC(N(c3ccc(OC)cc3)S(=O)(=O)c3ccccc3Cl)CC2)cc1 [Example 236] | > 5.00 | 10 to 30 |
| COc1ccc(S(=O)(=O)N2CCC(n3c(-c4ccccc4OC)nc4cccnc43)CC2)cc1Cl [Example 55] | > 5.00 | 30 to 80 |
| Cc1ccc2nc(-c3ccccc3)n(C3CCN(S(=O)(=O)c4ccc(C)c(Cl)c4)CC3)c2n1 [Example 63] | > 5.00 | 30 to 80 |
| O=S(=O)(c1ccc2c(c1)OC(F)(F)O2)N1CCC(n2c(-c3ccccc3)nc3cccnc32)CC1 [Example 48] | > 5.00 | 30 to 80 |
| COc1ccc(S(=O)(=O)N2CCC(N(c3ccccn3)S(=O)(=O)c3c(C)cc(C)cc3C)CC2)cc1Cl [Example 184] | > 5.00 | 10 to 30 |
| CCc1ccc(S(=O)(=O)N2CCC(n3c(-c4ccncc4F)nc4c(OC)ccnc43)CC2)cc1 [Example 169] | > 5.00 | 30 to 80 |
| CCc1ccc(S(=O)(=O)N2CCC(N(c3ccccn3)S(=O)(=O)c3c(C)cc(C)cc3C)CC2)cc1 [Example 183] | > 5.00 | 30 to 80 |
| CCc1ccc(S(=O)(=O)N2CCC(N(c3ccc(C)cn3)S(=O)(=O)c3ccccc3Cl)CC2)cc1 [Example 227] | > 5.00 | 10 to 30 |
| CC(=O)N1c2ccc(S(=O)(=O)N3CCC(n4c(-c5ccncn5)nc5cccnc54)CC3)cc2CC1C (stereo not shown) [Example 152] | 4.70 to 5.00 | 10 to 30 |
| COc1ccc(S(=O)(=O)N2CCC(n3c(-c4ncccc4Cl)nc4cccnc43)CC2)cc1Cl [Example 90] | 4.70 to 5.00 | 30 to 80 |

| Compound | pEC50 | Emax [%] |
| --- | --- | --- |
| Cc1ccc2nc(-c3ncccc3Cl)n(C3CCN(S(=O)(=O)c4ccc5c(c4)OC(F)(F)O5)CC3)c2n1 [Example 54] | > 5.00 | 30 to 80 |
| O=S(=O)(c1ccc2c(c1)OC(F)(F)O2)N1CCC(n2c(-c3ccccc3OC(F)F)nc3cccnc32)CC1 [Example 126] | > 5.00 | 30 to 80 |
| O=S(=O)(c1ccc2c(c1)OC(F)(F)O2)N1CCC(n2c(-c3cccnc3Cl)nc3cccnc32)CC1 [Example 102] | > 5.00 | 30 to 80 |
| CCc1ccc(S(=O)(=O)N2CCC(N(c3cc(OC)ccn3)S(=O)(=O)c3ccccc3Cl)CC2)cc1 [Example 244] | 4.70 to 5.00 | 30 to 80 |
| O=S(=O)(c1ccc2cc[nH]c2c1)N1CCC(n2c(-c3ccncc3F)nc3cccnc32)CC1 [Example 162] | > 5.00 | 10 to 30 |
| O=S(=O)(c1ccc2cc[nH]c2c1)N1CCC(n2c(-c3ccncc3Cl)nc3cccnc32)CC1 [Example 161] | 4.70 to 5.00 | 10 to 30 |
| Cc1noc2ccc(S(=O)(=O)N3CCC(n4c(-c5ccc(F)cc5F)nc5cccnc54)CC3)cc12 [Example 140] | < 4.70 | 10 to 30 |
| O=S(=O)(c1ccc2c(c1)OC(F)(F)O2)N1CCC(n2c(-c3ccncc3Cl)nc3ncccc32)CC1 [Example 40] | > 5.00 | 30 to 80 |
| Cc1ccnc2c1nc(-c1ccncc1Cl)n2C1CCN(S(=O)(=O)c2ccc3c(c2)OC(F)(F)O3)CC1 [Example 166] | > 5.00 | 30 to 80 |
| CCc1ccc(S(=O)(=O)N2CCC(N(c3cccc(OC)n3)S(=O)(=O)c3ccccc3Cl)CC2)cc1 [Example 222, 2-Chloro-N-(1-((4-ethylphenyl)sulfonyl)piperidin-4-yl)-N-(6-methoxypyridin-2-yl)benzenesulfonamide] | > 5.00 | 10 to 30 |
| CCc1ccc(S(=O)(=O)N2CCC(N(c3ccc(F)cc3)S(=O)(=O)c3ccccc3Cl)CC2)cc1 [Example 241] | > 5.00 | 10 to 30 |
| Cc1noc2ccc(S(=O)(=O)N3CCC(n4c(-c5ccncc5F)nc5cccnc54)CC3)cc12 [Example 139] | < 4.70 | 10 to 30 |
| CCc1ccc(S(=O)(=O)N2CCC(N(c3cccc(C)c3)S(=O)(=O)c3ccccc3Cl)CC2)cc1 [Example 238] | > 5.00 | 30 to 80 |
| COc1ccc(S(=O)(=O)N2CCC(n3c(-c4ccccc4)nc4ccccc43)CC2)cc1Cl [Example 81] | > 5.00 | 30 to 80 |
| Cc1ccc(S(=O)(=O)N2CCC(n3c(-c4ccccc4Cl)nc4cccnc43)CC2)cc1 [Example 59] | > 5.00 | 30 to 80 |
| CCc1ccc(S(=O)(=O)N2CCC(N(C(=O)Nc3ccccc3)c3ccccn3)CC2)cc1 [Example 180] | 4.70 to 5.00 | 10 to 30 |
| O=S(=O)(c1ccc2c(c1)OC(F)(F)O2)N1CCC(n2c(-c3ccc(F)nc3F)nc3cccnc32)CC1 [Example 106] | > 5.00 | 10 to 30 |
| CCc1ccc(S(=O)(=O)N2CCC(N(C(=S)c3ccccc3Cl)c3ccc(OC)cc3)CC2)cc1 [Example 211] | 4.70 to 5.00 | 30 to 80 |
| O=S(=O)(c1ccc2c(c1)OCO2)N1CCC(n2c(-c3ncccc3Cl)nc3cccnc32)CC1 [Example 93] | > 5.00 | 30 to 80 |
| COc1ccc(S(=O)(=O)N2CCC(N(c3cccc(C)n3)S(=O)(=O)c3ccccc3)CC2)cc1Cl [Example 187] | > 5.00 | 10 to 30 |

| Compound | pEC50 | Emax [%] |
| --- | --- | --- |
| O=S(=O)(c1ccc2c(c1)OC(F)(F)O2)N1CCC(n2c(-c3ccncc3Cl)nc3cnccc32)CC1 [Example 137] | 4.70 to 5.00 | 10 to 30 |
| CCc1ccc(S(=O)(=O)N2CCC(N(C(=O)c3ccccc3Cl)c3ccccc3)CC2)cc1 [Example 210] | 4.70 to 5.00 | 30 to 80 |
| CCc1ccc(S(=O)(=O)N2CCC(N(C(=O)c3ccccc3Cl)c3ccc4c(c3)OC(F)(F)O4)CC2)cc1 [Example 209] | > 5.00 | 30 to 80 |
| CCc1ccc(S(=O)(=O)N2CCC(N(C(=O)c3ccccc3Cl)c3ccccn3)CC2)cc1 [Example 196] | 4.70 to 5.00 | 30 to 80 |
| Cc1nc2ccc(S(=O)(=O)N3CCC(n4c(-c5ccncc5F)nc5cccnc54)CC3)cc2o1 [Example 133] | > 5.00 | > 80 |
| COc1ccc(S(=O)(=O)N2CCC(N(c3cccc(C)n3)S(=O)(=O)c3ccccc3Cl)CC2)cc1Cl [Example 190] | > 5.00 | 10 to 30 |
| O=S(=O)(c1ccc2c(c1)OCO2)N1CCC(n2c(-c3ccc(F)nc3F)nc3cccnc32)CC1 [Example 105] | > 5.00 | 30 to 80 |
| Cc1ccc2nc(-c3ccccc3)n(C3CCN(S(=O)(=O)c4ccc5c(c4)OCO5)CC3)c2n1 [Example 62] | > 5.00 | 30 to 80 |
| CC(=O)N1c2ccc(S(=O)(=O)N3CCC(n4c(-c5ccncc5F)nc5cccnc54)CC3)cc2CC1C (stereo not shown) [Example 145] | > 5.00 | 10 to 30 |
| O=S(=O)(c1ccc2c(c1)OC(F)(F)O2)N1CCC(n2c(-c3ccc(F)cc3C(F)(F)F)nc3cccnc32)CC1 [Example 125] | > 5.00 | 30 to 80 |
| CCc1ccc(S(=O)(=O)N2CCC(N(C(=O)c3ccccc3Cl)c3ccc(Br)cc3)CC2)cc1 [Example 214] | > 5.00 | 10 to 30 |
| Cc1n[nH]c2ccc(S(=O)(=O)N3CCC(n4c(-c5ccc(F)cc5F)nc5cccnc54)CC3)cc12 [Example 144] | > 5.00 | 10 to 30 |
| COc1ccc(S(=O)(=O)N2CCC(n3c(-c4ccccc4)nc4ccc(C)nc43)CC2)cc1F [Example 64] | > 5.00 | 30 to 80 |
| COc1ccc(S(=O)(=O)N2CCC(n3c(-c4ccc(F)cc4)nc4cccnc43)CC2)cc1Cl [Example 77] | > 5.00 | 30 to 80 |
| CCc1ccc(S(=O)(=O)N2CCC(N(C(=S)c3ccccc3Cl)c3ccccc3)CC2)cc1 [Example 213] | 4.70 to 5.00 | 10 to 30 |
| Cc1ccc2nc(-c3ccccc3F)n(C3CCN(S(=O)(=O)c4ccc5c(c4)OC(F)(F)O5)CC3)c2n1 [Example 83] | > 5.00 | 30 to 80 |
| Cc1cc2cc(S(=O)(=O)N3CCC(n4c(-c5ccncc5F)nc5cccnc54)CC3)ccc2[nH]1 [Example 142] | > 5.00 | 10 to 30 |
| O=S(=O)(c1ccc2snc(Cl)c2c1)N1CCC(n2c(-c3ccc(F)cc3F)nc3cccnc32)CC1 [Example 159] | > 5.00 | 10 to 30 |
| CCc1ccc(S(=O)(=O)N2CCC(N(C(=O)Nc3ccccc3Cl)c3cccc(C)n3)CC2)cc1 [Example 175, 3-(2-chlorophenyl)-1-(1-((4-ethylphenyl)sulfonyl)piperidin-4-yl)-1-(6-methylpyridin-2-yl)urea] | > 5.00 | 10 to 30 |
